Activity calls are given as the source filed them.
Assays:
[1] = A cytotoxicity screen of small molecule inhibitors of the PhoP region in Salmonella typhi identified in the primary screen. [Related pubchem assays: 1850, 1864, 1985 ]; format: functional
[2] = target: T1, Coagulation factor XII (Homo sapiens, UniProt P00748); format: functional;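 note: activated factor XIIa alpha cleaving a fluorogenic AMC peptide substrate; inhibitor potency from loss of enzyme activity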
T1 sequence (P00748 whole entry): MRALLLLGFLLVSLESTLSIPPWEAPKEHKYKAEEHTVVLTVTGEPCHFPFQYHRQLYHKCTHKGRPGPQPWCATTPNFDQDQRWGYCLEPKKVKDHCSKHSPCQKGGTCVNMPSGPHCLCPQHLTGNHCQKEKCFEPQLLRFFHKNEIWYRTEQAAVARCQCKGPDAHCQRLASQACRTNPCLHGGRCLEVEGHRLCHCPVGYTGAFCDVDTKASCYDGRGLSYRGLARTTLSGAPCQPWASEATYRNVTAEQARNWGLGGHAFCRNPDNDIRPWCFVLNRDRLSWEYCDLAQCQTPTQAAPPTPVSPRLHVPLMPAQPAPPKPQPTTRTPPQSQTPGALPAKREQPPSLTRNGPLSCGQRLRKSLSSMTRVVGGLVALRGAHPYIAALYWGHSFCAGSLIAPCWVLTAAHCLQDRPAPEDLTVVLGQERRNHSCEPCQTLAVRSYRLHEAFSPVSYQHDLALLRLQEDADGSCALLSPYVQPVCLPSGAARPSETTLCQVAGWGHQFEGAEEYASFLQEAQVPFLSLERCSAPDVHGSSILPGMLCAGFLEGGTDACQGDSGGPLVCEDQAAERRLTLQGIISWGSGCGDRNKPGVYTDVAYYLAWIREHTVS

[3] = target: Peroxisome proliferator-activated receptor gamma/Nuclear receptor coactivator 1 (Homo sapiens, UniProt P37231); assay: TR-FRET dose response biochemical High Throughput Screening assay for agonists of the steroid receptor coactivator 1 (SRC-1) recruitment by the peroxisome proliferator-activated receptor gamma (PPAR gamma): non-selective agonists. [Related pubchem assays (depositor defined):AID1300, AID1808, AID504735, AID631]; format: protein assay
Chain of Peroxisome proliferator-activated receptor gamma/Nuclear receptor coactivator 1 (P37231 whole entry): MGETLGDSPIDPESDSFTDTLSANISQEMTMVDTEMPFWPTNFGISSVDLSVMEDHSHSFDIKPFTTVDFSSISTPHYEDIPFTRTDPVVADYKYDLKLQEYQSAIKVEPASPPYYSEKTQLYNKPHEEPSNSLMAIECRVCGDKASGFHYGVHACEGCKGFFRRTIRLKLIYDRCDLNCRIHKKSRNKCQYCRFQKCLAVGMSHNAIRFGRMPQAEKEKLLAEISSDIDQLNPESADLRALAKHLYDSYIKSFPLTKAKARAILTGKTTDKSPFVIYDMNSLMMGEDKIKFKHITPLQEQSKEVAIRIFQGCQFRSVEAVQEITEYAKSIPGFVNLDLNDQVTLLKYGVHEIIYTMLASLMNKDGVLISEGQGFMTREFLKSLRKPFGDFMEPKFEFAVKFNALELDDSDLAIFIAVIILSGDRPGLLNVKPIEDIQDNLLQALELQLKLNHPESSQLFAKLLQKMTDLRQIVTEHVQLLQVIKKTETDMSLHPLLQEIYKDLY
Chain of Peroxisome proliferator-activated receptor gamma/Nuclear receptor coactivator 1 (Q15788 whole entry, further chain): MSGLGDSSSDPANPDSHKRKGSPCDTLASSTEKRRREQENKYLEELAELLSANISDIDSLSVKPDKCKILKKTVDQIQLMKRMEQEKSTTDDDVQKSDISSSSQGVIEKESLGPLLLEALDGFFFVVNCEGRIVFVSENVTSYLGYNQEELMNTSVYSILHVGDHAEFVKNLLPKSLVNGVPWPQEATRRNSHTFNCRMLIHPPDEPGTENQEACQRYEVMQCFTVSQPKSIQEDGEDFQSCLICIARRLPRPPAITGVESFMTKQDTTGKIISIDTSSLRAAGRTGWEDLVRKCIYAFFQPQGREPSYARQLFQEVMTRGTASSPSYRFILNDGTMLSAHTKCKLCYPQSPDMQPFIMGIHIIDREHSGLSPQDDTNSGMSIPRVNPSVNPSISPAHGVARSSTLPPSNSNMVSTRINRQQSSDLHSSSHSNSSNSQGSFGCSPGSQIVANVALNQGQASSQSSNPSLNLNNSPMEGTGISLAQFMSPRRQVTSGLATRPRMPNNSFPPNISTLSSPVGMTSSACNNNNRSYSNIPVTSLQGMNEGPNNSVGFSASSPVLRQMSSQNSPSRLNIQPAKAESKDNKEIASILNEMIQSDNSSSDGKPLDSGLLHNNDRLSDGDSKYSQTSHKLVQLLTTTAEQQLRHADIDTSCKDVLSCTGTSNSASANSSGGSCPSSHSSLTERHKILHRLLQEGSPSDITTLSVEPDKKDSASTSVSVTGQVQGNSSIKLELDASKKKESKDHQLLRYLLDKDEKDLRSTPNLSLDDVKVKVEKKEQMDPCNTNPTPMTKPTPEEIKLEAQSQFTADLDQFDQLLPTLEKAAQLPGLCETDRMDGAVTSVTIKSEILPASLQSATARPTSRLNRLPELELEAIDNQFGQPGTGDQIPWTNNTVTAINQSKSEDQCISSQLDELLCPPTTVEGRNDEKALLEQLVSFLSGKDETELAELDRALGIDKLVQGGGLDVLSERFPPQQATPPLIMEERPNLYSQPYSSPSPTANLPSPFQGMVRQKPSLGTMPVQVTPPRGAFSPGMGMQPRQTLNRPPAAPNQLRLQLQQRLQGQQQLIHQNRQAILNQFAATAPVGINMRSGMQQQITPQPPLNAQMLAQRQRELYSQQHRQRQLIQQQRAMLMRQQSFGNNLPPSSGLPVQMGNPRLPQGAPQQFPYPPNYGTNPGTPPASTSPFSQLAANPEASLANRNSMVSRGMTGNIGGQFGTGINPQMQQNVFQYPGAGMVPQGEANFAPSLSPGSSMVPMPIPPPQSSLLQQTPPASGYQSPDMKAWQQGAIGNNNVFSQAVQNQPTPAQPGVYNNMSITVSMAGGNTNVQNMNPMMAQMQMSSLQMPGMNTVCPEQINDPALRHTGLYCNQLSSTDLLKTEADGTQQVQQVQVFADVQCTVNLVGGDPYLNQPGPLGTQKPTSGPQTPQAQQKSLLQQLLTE

[4] = target: Peroxisome proliferator-activated receptor gamma/Nuclear receptor coactivator 2 (Homo sapiens, UniProt P37231); assay: (§1) TR-FRET dose response biochemical High Throughput Screening assay for agonists of the steroid receptor coactivator 2 (SRC-2) recruitment by the peroxisome proliferator-activated receptor gamma (PPAR gamma): non-selective agonists. [Related pubchem assays: 1297, 1032 ]; format: functional
[5] = target: Peroxisome proliferator-activated receptor gamma/Nuclear receptor coactivator 3 (Homo sapiens, UniProt P37231); assay: as §1, with “3 (SRC-3)” for “2 (SRC-2)”, “1301 (Confirmation screen.), 1048 (Primary screen.)]” for “1297, 1032 ]”; format: functional
Chain of Peroxisome proliferator-activated receptor gamma/Nuclear receptor coactivator 3 (P37231 whole entry, the tested form may be a part): as the sequence (P37231 whole entry) above
Chain of Peroxisome proliferator-activated receptor gamma/Nuclear receptor coactivator 3 (Q9Y6Q9 whole entry, further chain, the tested form may be a part): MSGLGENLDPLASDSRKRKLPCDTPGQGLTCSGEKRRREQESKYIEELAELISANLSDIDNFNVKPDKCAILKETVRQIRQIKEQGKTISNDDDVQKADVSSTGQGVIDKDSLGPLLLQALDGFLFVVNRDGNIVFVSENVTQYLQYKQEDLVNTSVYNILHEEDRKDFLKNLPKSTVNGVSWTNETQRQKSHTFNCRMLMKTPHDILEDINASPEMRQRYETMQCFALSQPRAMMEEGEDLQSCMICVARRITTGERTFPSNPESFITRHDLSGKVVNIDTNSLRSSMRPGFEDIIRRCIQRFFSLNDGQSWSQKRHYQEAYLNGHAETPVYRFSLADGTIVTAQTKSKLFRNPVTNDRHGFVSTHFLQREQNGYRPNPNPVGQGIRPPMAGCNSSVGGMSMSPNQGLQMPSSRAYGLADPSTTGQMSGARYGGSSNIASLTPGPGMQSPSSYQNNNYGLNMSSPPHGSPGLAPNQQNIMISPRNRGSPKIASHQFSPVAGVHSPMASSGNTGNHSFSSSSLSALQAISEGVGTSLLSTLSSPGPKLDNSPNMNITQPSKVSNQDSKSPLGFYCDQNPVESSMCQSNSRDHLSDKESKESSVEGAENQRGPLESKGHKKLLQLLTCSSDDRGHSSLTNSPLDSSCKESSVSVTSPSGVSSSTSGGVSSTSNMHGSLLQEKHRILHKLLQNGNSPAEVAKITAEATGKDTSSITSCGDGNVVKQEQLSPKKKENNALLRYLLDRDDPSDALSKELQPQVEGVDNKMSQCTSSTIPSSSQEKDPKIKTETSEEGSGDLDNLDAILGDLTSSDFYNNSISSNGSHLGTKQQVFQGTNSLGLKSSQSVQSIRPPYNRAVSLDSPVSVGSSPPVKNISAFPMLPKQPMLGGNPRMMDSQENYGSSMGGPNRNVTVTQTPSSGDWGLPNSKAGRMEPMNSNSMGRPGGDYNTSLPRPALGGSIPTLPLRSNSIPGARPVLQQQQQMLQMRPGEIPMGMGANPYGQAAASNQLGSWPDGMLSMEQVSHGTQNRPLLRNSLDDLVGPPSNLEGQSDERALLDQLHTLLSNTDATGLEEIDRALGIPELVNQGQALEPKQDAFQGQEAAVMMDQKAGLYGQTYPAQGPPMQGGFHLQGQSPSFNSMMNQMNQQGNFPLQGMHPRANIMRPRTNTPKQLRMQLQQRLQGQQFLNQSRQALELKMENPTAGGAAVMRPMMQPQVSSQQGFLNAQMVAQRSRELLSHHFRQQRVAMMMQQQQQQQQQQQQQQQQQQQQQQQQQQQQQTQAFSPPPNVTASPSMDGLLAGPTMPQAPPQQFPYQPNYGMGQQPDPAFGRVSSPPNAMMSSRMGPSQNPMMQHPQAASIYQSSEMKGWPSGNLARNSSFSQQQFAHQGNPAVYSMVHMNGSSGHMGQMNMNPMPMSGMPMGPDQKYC

[6] = CCR5-tropic HIV-1 fusion blockers – cell-based, CCR5-tropic Env, dose response (AID 2279); format: functional
[7] = target: Beta-galactosidase (Escherichia coli, UniProt Q8VNN2); assay: detection-enzyme interference by beta-gal modulators – biochemical, E. coli enzyme, set 3, artefact control for CCR6 antagonist project, dose response (AID 504712); format: functional
[8] = HepG2 cell cytotoxicity, dose response, cytotoxicity control for non-replicating M. tuberculosis project (AID 489018); format: functional; conditions: Mycobacterium tuberculosis
[9] = NIH3T3 cell viability loss – ATP luminescence, mouse fibroblasts, counter-screen, dose response (AID 2010); format: functional, cell-based;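 note: cells exposed to compound for about 90 hours before reading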
[10] = Trypanosoma cruzi growth suppression in host cells – NIH3T3 host cells, beta-gal luminescence, confirmation (AID 2044); format: functional, cell-based;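 note: intracellular parasites grown in NIH/3T3 mouse fibroblasts as host cells; luminescent beta-galactosidase reporter signal from transgenic T. cruzi replicating inside host cells; inhibitors lower the luminescence signal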
[11] = cells; format: functional
[12] = Vero E6 cell cytotoxicity, dose response, cytotoxicity control for non-replicating M. tuberculosis project, secondary assay (AID 492998); format: functional, VeroE6; conditions: Vero C1008
[13] = THP-1 cell cytotoxicity, dose response, cytotoxicity control for non-replicating M. tuberculosis project (AID 489025); format: functional
[14] = microbe, parasite or virus in culture; format: functional; conditions: Mycobacterium tuberculosis
[15] = target: T2, RNA-binding protein pos-1 (Caenorhabditis elegans, UniProt G5EF15); assay: disruptors of C. elegans POS-1 RNA interaction – biochemical, fluorescence polarization, dose response (AID 1964);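 note: purified POS-1 fused to maltose binding protein made in E. coli; potency of compounds blocking POS-1 binding to fluorescent RNA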
T2 sequence (G5EF15 whole entry): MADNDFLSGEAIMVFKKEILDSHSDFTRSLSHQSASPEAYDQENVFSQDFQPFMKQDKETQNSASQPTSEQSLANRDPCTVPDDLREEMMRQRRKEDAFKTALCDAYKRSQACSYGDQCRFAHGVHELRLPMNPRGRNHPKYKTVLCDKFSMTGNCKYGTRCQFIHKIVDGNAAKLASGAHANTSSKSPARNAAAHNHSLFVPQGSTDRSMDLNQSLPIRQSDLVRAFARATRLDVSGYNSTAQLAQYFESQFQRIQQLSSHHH

[16] = target: T3, Zinc finger protein mex-5 (Caenorhabditis elegans, UniProt Q9XUB2); assay: potency of MEX-5 RNA-binding blockers – biochemical, C. elegans, fluorescence polarization, dose response (AID 1960)
T3 sequence (Q9XUB2 whole entry): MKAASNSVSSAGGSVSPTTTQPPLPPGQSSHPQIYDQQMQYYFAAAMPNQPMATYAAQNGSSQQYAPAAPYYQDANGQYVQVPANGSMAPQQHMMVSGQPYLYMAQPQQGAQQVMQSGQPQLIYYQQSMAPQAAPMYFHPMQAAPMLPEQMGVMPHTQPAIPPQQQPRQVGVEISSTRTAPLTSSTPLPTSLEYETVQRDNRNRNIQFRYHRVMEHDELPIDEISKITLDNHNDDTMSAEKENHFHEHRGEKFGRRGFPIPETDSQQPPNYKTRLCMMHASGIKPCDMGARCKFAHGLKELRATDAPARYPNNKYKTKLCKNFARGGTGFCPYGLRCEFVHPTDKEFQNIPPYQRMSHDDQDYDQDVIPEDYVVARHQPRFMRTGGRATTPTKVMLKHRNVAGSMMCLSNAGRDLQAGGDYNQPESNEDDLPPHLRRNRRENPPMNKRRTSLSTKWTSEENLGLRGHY

[17] = tested on: HT-1080; assay: HT1080 cell viability loss – fluorescence readout (AID 620); format: functional, cell-based; conditions: Homo sapiens
[18] = target: Cytochrome P450 2C19 (Homo sapiens, UniProt P33261); assay: Cytochrome panel assay with activity outcomes. Panel member name: p450-cyp2c19 Compounds with AC50 equal or less than 10 uM are considered active; format: functional; conditions: read-out: AC50
Chain of Cytochrome P450 2C19 (P33261 whole entry): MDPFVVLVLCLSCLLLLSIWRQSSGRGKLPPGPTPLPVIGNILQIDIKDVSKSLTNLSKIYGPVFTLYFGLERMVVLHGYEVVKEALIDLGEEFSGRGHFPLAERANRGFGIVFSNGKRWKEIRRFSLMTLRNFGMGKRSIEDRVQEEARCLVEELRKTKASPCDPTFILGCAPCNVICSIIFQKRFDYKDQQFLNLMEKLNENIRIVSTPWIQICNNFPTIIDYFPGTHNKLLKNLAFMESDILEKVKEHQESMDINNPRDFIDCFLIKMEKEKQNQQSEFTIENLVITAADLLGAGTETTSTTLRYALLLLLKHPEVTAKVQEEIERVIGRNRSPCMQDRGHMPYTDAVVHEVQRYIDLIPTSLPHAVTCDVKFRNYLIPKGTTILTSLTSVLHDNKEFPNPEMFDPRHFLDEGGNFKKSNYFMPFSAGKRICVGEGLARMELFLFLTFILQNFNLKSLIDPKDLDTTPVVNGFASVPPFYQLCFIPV

[19] = target: T4, Luciferin 4-monooxygenase (Photinus pyralis, UniProt P08659); assay: Counter Screen for Luciferase-based Assay Positives. [Related pubchem assays: 620, 618, 411 ]
T4 sequence (P08659 whole entry): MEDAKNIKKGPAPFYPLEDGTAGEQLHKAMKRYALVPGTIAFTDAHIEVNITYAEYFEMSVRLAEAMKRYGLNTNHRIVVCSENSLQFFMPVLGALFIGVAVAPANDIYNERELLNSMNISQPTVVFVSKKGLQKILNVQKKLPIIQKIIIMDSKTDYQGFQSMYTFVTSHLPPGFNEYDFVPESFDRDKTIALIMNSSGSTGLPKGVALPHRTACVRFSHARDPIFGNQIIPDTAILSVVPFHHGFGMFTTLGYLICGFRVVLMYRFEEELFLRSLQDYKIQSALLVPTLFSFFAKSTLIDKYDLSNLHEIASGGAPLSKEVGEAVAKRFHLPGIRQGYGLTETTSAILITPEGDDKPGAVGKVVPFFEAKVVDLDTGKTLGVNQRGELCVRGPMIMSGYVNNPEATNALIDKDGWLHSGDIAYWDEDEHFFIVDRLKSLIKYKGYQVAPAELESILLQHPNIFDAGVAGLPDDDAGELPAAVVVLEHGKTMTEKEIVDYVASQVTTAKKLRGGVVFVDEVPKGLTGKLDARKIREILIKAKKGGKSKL

[20] = target: T5, Heat shock factor protein 1 (Mus musculus, UniProt P38532); assay: decrease of HSF1-responsive luciferase luminescence – cell-based, NIH3T3, dose retest, confirmation (AID 2382); format: functional;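 note: NIH3T3 fibroblasts with HSF1-driven luciferase reporter stressed by proteasome inhibitor MG132; luminescence from HSF1-driven luciferase expression after 8 hours of MG132 stress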
T5 sequence (P38532 whole entry): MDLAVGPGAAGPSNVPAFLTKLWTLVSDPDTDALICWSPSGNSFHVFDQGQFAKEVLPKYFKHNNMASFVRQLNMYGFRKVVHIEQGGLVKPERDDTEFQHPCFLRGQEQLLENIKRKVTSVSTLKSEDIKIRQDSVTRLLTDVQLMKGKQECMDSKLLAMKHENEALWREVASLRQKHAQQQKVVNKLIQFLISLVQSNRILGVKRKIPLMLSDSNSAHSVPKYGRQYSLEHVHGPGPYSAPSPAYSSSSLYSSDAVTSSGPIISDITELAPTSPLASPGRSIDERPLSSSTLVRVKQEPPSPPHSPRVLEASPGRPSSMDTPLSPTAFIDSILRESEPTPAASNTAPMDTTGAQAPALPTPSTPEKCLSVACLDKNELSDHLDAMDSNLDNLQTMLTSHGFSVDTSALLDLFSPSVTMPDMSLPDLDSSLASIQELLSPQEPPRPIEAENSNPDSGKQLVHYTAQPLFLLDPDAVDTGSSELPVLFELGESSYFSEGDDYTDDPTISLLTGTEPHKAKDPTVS

[21] = target: T6, Aminopeptidase N (Plasmodium falciparum FcB1/Columbia, UniProt O96935); assay: malaria alanyl aminopeptidase activity blockers – biochemical, fluorogenic H-Leu-NHMec substrate, 1536-well (AID 1445); design: species or system Plasmodium falciparum 3D7, 3D7
T6 sequence (O96935 whole entry): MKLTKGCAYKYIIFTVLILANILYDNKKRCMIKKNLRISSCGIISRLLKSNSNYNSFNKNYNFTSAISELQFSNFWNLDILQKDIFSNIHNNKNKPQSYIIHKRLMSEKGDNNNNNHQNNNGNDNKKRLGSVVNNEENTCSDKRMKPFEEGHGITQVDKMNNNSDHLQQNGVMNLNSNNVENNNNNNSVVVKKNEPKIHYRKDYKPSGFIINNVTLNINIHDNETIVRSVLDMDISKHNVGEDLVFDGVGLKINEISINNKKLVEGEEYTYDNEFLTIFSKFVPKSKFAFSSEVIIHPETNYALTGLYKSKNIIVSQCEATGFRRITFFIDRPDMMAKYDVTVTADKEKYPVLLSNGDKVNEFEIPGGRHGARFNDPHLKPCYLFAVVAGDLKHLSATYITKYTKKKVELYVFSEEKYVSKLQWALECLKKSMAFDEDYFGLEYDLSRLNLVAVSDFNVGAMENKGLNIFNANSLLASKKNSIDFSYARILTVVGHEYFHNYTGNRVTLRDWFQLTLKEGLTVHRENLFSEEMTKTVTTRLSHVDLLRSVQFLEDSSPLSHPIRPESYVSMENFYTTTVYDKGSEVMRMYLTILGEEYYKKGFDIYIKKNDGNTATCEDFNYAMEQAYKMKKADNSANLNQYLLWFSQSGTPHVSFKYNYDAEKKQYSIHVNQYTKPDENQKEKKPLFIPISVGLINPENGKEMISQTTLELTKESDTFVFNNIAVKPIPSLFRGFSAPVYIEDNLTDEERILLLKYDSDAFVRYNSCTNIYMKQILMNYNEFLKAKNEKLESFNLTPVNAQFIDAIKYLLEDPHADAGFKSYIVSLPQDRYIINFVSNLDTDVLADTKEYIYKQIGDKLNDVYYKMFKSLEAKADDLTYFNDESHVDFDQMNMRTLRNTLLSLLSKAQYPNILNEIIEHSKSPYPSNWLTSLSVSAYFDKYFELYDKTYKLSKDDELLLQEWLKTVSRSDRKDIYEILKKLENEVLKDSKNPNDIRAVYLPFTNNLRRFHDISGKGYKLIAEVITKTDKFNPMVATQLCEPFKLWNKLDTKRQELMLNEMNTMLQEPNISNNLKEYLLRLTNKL

[22] = target: T4, Luciferin 4-monooxygenase; assay: inhibition of purified Photinus pyralis luciferase – biochemical, luminescence, dose response (AID 1891)
[23] = Luminescence Cell-Based Dose Confirmation HTS to Identify Inhibitors of Platelet Dense Granule Release. [Related pubchem assays: 1663 (Primary HTS), 1678 (Summary of Project)]; format: functional
[24] = target: T7, Rac GTPase-activating protein 1 (Homo sapiens, UniProt Q9H0H5); assay: blockers of MgcRacGAP-driven Rac1 GTP hydrolysis – biochemical, ADP Hunter fluorescence, primary and confirmatory, confirmation (AID 624330); format: functional
T7 sequence (Q9H0H5 whole entry): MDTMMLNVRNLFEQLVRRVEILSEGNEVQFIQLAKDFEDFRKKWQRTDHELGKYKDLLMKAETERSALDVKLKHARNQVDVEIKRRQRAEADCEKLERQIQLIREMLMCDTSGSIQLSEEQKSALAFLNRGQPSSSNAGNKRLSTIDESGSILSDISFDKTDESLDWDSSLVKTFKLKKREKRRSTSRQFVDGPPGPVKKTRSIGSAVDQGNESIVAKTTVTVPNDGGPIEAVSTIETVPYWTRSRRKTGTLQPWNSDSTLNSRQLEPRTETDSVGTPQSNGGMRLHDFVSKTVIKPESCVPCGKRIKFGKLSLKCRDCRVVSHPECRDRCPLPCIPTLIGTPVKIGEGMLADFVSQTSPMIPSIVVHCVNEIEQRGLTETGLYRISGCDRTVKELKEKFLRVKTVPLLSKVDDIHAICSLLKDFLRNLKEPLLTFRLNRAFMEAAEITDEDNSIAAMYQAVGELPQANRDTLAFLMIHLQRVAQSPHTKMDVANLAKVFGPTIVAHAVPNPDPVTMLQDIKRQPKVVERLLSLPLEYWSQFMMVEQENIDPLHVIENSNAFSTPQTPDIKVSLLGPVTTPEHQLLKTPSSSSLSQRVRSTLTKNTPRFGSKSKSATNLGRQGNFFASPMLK

COc1cccc(N2CCN(C(S)=NCc3ccco3)CC2)c1
EC50 [1]: > 50 µM (active)

Cc1cc(Nc2ccc(C)c(C)c2)n2nc(C)nc2n1
IC50 [2]: > 50 µM (inactive)

COc1cccc(Nc2nc(-c3sc(NC(=O)c4ccccc4)nc3C)cs2)c1
EC50 [3]: 14.8 µM (inactive)
EC50 [4]: 27.9 µM (not active)
EC50 [5]: > 79.4 µM (not active)

COc1ccc(-c2nn(-c3ccccc3)cc2/C=C2/SC(=S)N(CCCC(=O)O)C2=O)c(C)c1
IC50 [6]: 45 µM (active)

CN1C(=O)C(c2c(O)[nH]c3ccccc23)=NC1=S
IC50 [7]: > 66.6 µM (inactive)

Cc1ccc(NC(=O)COc2ccccc2CNC(C)(C)CC(C)(C)C)cc1
CC50 [8]: 13.8 µM (active)
EC50 [9]: 8.6 µM (active)
EC50 [10]: 1.36 µM (active)
IC50 [11]: 13.4 µM (active)
CC50 [12]: 15.7 µM (active)
CC50 [13]: 18.9 µM (active)
CC50 [14]: 23.4 µM (active)

Nn1c(C2CCCCC2)nc2ccccc2c1=O
IC50 [2]: > 50 µM (inactive)

CCn1c(=O)cc(SCC(=O)Nc2cccc(SC)c2)c2ccccc21
EC50 [3]: 69.8 µM (inactive)
EC50 [4]: > 26.5 µM (not active)
EC50 [5]: > 79.4 µM (not active)

Cc1nnc(N2C(=O)C(O)=C(C(=O)c3ccco3)C2c2ccc(F)cc2)s1 (stereo not given)
EC50 [3]: > 79.4 µM (inactive)
EC50 [4]: 27 µM (not active)
EC50 [15]: 34.2 µM (active)
EC50 [16]: 32.9 µM (active)
EC50 [5]: > 79.4 µM (not active)

O=C(Nc1ccc2nc(S)sc2c1)Nc1ccccc1F
EC50 [1]: > 50 µM (active)

CCOC(=O)c1sc2nc3c(cc2c1N)COC(C(C)C)C3 (stereo not given)
EC50 [17]: > 50 µM (not active)
AC50 [18]: 22.4 µM (inconclusive)
EC50 [19]: 2.84 µM (active)
EC50 [20]: > 195 µM (not active)

Cc1cc(C)c2ccc(/C=N/O)nc2c1O
CC50 [8]: > 20 µM (active)
IC50 [11]: 4.25 µM (active)
CC50 [12]: 19.5 µM (active)
CC50 [13]: 22.9 µM (active)

Cc1occc1C(=O)N/N=C/c1cccs1
EC50 [1]: > 50 µM (active)

Nc1ccc(-c2nc3ccc(N)cc3o2)cc1
IC50 [21]: 26.2 µM (active)
EC50 [22]: 20.1 µM (active)
EC50 [17]: > 50 µM (not active)
EC50 [23]: 25 µM (active)
EC50 [19]: 6.3 µM (active)
IC50 [24]: 47.8 µM (active)

COc1cccc(NC(=O)Nc2ccccc2SC)c1
IC50 [2]: > 50 µM (inactive)
